One experiment concerns NCI-H226 cells. The experiment is described as follows: NCI-H226 proliferation assay (in house). It is filed as cell-based. The note with it: Homo sapiens, 120 h, 5 days, Cell TiterGlo, 20-point 1:2 dilution from 20 μM. As for the experimental part:
NCI-H226 Proliferation Assay
NCI-H226 cells were obtained from American Type Culture Collection (ATCC, CRL-5826) and cultured in RPMI 1640 with L-glutamine (Corning, 10-040-CV) supplemented with 10% fetal bovine serum (Gibco, 10438-026) and 1% penicillin-streptomycin (Gibco, 15070063). Cells were trypsinized, resuspended in growth medium, and diluted to a concentrated of 10,000 cells/mL. 500 cells, 50 μL of cell suspension, per well were then plated in a white 384-well plate (Corning) and incubated at 37° C., 5% CO2. After 24 hours incubation, 100 nL of test compounds in DMSO, 20-point 1:2 dilution starting from 20 μM (final concentration) in triplicate, were transferred to each well using an Agilent Bravo instrument outfitted with a pintool head. Cells were incubated at 37° C., 5% CO2 for 5 days followed by the addition of 30 μL of Cell TiterGlo (Promega; diluted 1:6 in water) to each well and luminescence values recorded using an EnVision plate reader. […]
On the technique in general: Cellular ATP, detected with luciferase, serves as a proxy for viable cell number.

Experiment [1] has as its system transcriptional activity of TEADs. The experiment is described as follows: TEAD reporter assay (MCF7 TEAD-LUC reporter cells). It is filed as cell-based. The note with it: Homo sapiens, 24 hours, BrightGlo luminescence. As for the experimental part:
MCF7 TEAD-LUC reporter cells were obtained from BPS Bioscience, Inc. and cultured in DMEM medium (Corning, 10-013-CV) supplemented with 10% fetal bovine serum (Gibco, 10438-026), 1% penicillin-streptomycin (Gibco, 15070063), 1% non-essential amino acids (Gibco, 15070063), and 10 μg/mL insulin (Sigma, 10516). Cells were trypsinized, resuspended in growth medium, and diluted to a concentrated of 100,000 cells/mL. 5,000 cells, 50 μL of cell suspension, per well were then plated in a white 384-well plate (Corning) and incubated at 37° C., 5% CO2. After 24 hours incubation, 100 nL of test compounds in DMSO, 20-point 1:2 dilution starting from 20 μM (final concentration) in triplicate, were transferred to each well using an Agilent Bravo instrument outfitted with a pintool head. Cells were incubated at 37° C., 5% CO2 for 24 hours followed by the addition of 30 μL of BrightGlo (Promega; diluted 1:3 in water) to each well and luminescence values recorded using an EnVision plate reader.
The in vitro assay results of the compounds in the present invention were included in Table 1. The compounds described herein, inhibited the transcriptional activity of TEADs, as assessed by decreased luminance from a TEAD reporter cell line (MCF7 TEAD-LUC) in response to compound treatment.

pIC50: −log10 of the molar value. Some results are limits rather than exact numbers.

As a reminder, the IC50 is the midpoint of a concentration-inhibition curve. As usually defined, the pIC50 is the negative decadic logarithm of the IC50, by convention in mol/L. In the case of `C=C(COC(C)=O)C(=O)N1CCN(c2nccnc2Nc2ccc(C(F)(F)F)cc2)CC1` [Example 187, 2-(4-(3-((4-(trifluoromethyl)phenyl)amino)pyrazin-2-yl)piperazine-1-carbonyl)allyl acetate], in the experiment on NCI-H226 cells, the IC50 is 7.41 µM. In experiment [1], the pIC50 was 4.44.

`C=CC(=O)N1CCN(c2nccnc2C(O)c2ccc(C(F)(F)F)cc2)CC1` (stereo not drawn) [Example 97, 1-(4-(3-(hydroxy(4-(trifluoromethyl)phenyl)methyl)pyrazin-2-yl)piperazin-1-yl)prop-2-en-1-one] came in with an IC50 in the experiment on NCI-H226 cells of 0.019 µM. The pIC50 in experiment [1] is 8.52.

In the experiment on NCI-H226 cells, `C=CC(=O)N1CCN(c2nccnc2C(=O)NC2CCCC2)CC1` [Example 102, 3-(4-acryloylpiperazin-1-yl)-N-cyclopentylpyrazine-2-carboxamide] showed an IC50 of 1.6 µM. Also, in experiment [1], the pIC50 was 7.41.

Compound `C=C(F)C(=O)N1CCC(c2cccnc2Oc2ccc(C(F)(F)F)nc2)CC1` [Example 156, 2-fluoro-1-(4-(2-((6-(trifluoromethyl)pyridin-3-yl)oxy)pyridin-3-yl)piperidin-1-yl)prop-2-en-1-one] gave a 50% inhibitory concentration (IC50) in the experiment on NCI-H226 cells of 0.083 µM. This compound also showed a pIC50 in experiment [1] of 7.86.

In the experiment on NCI-H226 cells, `C=C(F)C(=O)N1CCC(c2cccnc2Nc2ccc(C(F)(F)F)nc2)CC1` [Example 150, 2-fluoro-1-(4-(2-((6-(trifluoromethyl)pyridin-3-yl)amino)pyridin-3-yl)piperidin-1-yl)prop-2-en-1-one] showed an IC50 of 39.5 µM. The compound also gave a pIC50 in experiment [1] of 5.35.

Turning to `C=CC(=O)N1CCC(c2cccnc2Nc2ccc(OC(F)(F)F)nc2)CC1` [Example 151, 1-(4-(2-((6-(trifluoromethoxy)pyridin-3-yl)amino)pyridin-3-yl)piperidin-1-yl)prop-2-en-1-one], the IC50 in the experiment with NCI-H226 cells was found to be 1.05 µM. Further, the pIC50 in experiment [1] was 6.73.

The compound `C/C=C/C(=O)N1CCN(c2nccnc2Nc2ccc(C(F)(F)F)nc2)CC1` [Example 178, (E)-1-(4-(3-((6-(trifluoromethyl)pyridin-3-yl)amino)pyrazin-2-yl)piperazin-1-yl)but-2-en-1-one] yielded an IC50 with NCI-H226 cells of 0.884 µM. The pIC50 in experiment [1] is 8.57.

Compound `C=C(F)C(=O)N1CCC(c2ncccc2Oc2ccc(C(F)(F)F)nc2)CC1` [Example 139, 2-fluoro-1-(4-(3-((6-(trifluoromethyl)pyridin-3-yl)oxy)pyridin-2-yl)piperidin-1-yl)prop-2-en-1-one] showed an IC50 in the experiment on NCI-H226 cells of 7.03 µM. In experiment [1], this compound had a pIC50 of 5.49.

Take `C=CC(=O)N1CCN(c2nccnc2C(=O)N2CC3(CC(C(F)(F)F)C3)C2)CC1` [Example 101, 1-(4-(3-(6-(trifluoromethyl)-2-azaspiro[3.3]heptane-2-carbonyl)pyrazin-2-yl)piperazin-1-yl)prop-2-en-1-one]: the midpoint of inhibition in the experiment on NCI-H226 cells, the IC50, lay at 3.76 µM. In experiment [1], this compound had a pIC50 of 7.87.

Consider `C=C(F)C(=O)N1CC(Oc2nccnc2Nc2ccc(C(F)(F)F)nc2)C1` [Example 65, 2-fluoro-1-(3-((3-((6-(trifluoromethyl)pyridin-3-yl)amino)pyrazin-2-yl)oxy)azetidin-1-yl)prop-2-en-1-one], for which half-maximal inhibition in the experiment with NCI-H226 cells (IC50) was put at 1.85 µM. The same compound gave a pIC50 in experiment [1] of 7.73.

In the experiment on NCI-H226 cells, `C=CC(=O)N1CCN(c2nccnc2Oc2ccc(OC)cc2)CC1` [Example 70, 1-(4-(3-(4-methoxyphenoxy)pyrazin-2-yl)piperazin-1-yl)prop-2-en-1-one] showed an IC50 of 0.028 µM. Moreover, the negative logarithm of the IC50 (pIC50) in experiment [1] is 8.52.

As to `C=CC(=O)N1CCC(c2cnc(C)nc2Oc2ccc(C(F)(F)F)nc2)CC1` [Example 131, 1-(4-(2-methyl-4-((6-(trifluoromethyl)pyridin-3-yl)oxy)pyrimidin-5-yl)piperidin-1-yl)prop-2-en-1-one], the IC50 in the experiment on NCI-H226 cells was 2.25 µM. The compound further gave a pIC50 in experiment [1] of 6.22.

As for `C=C(CO)C(=O)N1CCN(c2nccnc2Nc2ccc(C(F)(F)F)cc2)CC1` [Example 186, 2-(hydroxymethyl)-1-(4-(3-((4-(trifluoromethyl)phenyl)amino)pyrazin-2-yl)piperazin-1-yl)prop-2-en-1-one], the IC50 with NCI-H226 cells was more than 20 µM. This compound also showed a pIC50 in experiment [1] of less than 4.70.

In the experiment on NCI-H226 cells, `O=C(C(O)CO)N1CCN(c2nccnc2Nc2ccc(C(F)(F)F)cc2)CC1` (stereo not drawn) [Example 180, 2,3-dihydroxy-1-(4-(3-((4-(trifluoromethyl)phenyl)amino)pyrazin-2-yl)piperazin-1-yl)propan-1-one] had an IC50 of more than 20 µM. This compound also gave a negative-log IC50 (pIC50) in experiment [1] of less than 4.70.

Turning to `C=CC(=O)N1CCN(c2ncccc2C(=O)N2CCC(F)(F)CC2)CC1` [Example 161, 1-(4-(3-(4,4-difluoropiperidine-1-carbonyl)pyridin-2-yl)piperazin-1-yl)prop-2-en-1-one], the IC50 in the experiment on NCI-H226 cells is more than 20 µM. In addition, in experiment [1], the pIC50 is 5.76.

As to `C=CC(=O)N1CCN(c2nccnc2Nc2ccc(C(F)(F)F)cc2)C[C@@H]1CCO` [Example 17, (S)-1-(2-(2-hydroxyethyl)-4-(3-((4-(trifluoromethyl)phenyl)amino)pyrazin-2-yl)piperazin-1-yl)prop-2-en-1-one], half-maximal inhibition in the experiment with NCI-H226 cells (IC50) was put at 3.3 µM. The pIC50 in experiment [1] is less than 4.70.

In turn, `C=CC(=O)N1CCC(n2ccc(C(=O)c3ccc(C(F)(F)F)cc3)n2)CC1` [Example 163, 1-(4-(3-(4-(trifluoromethyl)benzoyl)-1H-pyrazol-1-yl)piperidin-1-yl)prop-2-en-1-one] returned an IC50 in the experiment on NCI-H226 cells of 5 µM. The compound also showed a negative-log IC50 (pIC50) in experiment [1] of 5.00.

In the experiment on NCI-H226 cells, `C=C(CF)C(=O)N1CCN(c2nccnc2Nc2ccc(C(F)(F)F)cc2)CC1` [Example 188, 2-(fluoromethyl)-1-(4-(3-((4-(trifluoromethyl)phenyl)amino)pyrazin-2-yl)piperazin-1-yl)prop-2-en-1-one] displayed an IC50 of 0.013 µM. In experiment [1], the pIC50 was 8.64.

Compound `C#CCN(CCOc1nccnc1Nc1ccc(C(F)(F)F)cc1)C(=O)C=C` [Example 193, N-(prop-2-yn-1-yl)-N-(2-((3-((4-(trifluoromethyl)phenyl)amino)pyrazin-2-yl)oxy)ethyl)acrylamide] came in with an IC50 in the experiment on NCI-H226 cells of more than 20 µM. Also, the pIC50 in experiment [1] is 6.69.

For `C=CC(=O)N1CCC(c2nccnc2Oc2ccc(C(F)(F)F)cn2)CC1` [Example 75, 1-(4-(3-((5-(trifluoromethyl)pyridin-2-yl)oxy)pyrazin-2-yl)piperidin-1-yl)prop-2-en-1-one], in the experiment on NCI-H226 cells, it took 0.112 µM to reach half-maximal inhibition (IC50). The compound also gave a pIC50 in experiment [1] of 8.57.

With `C=CC(=O)N1CCN(c2nccnc2Nc2ccc(C(F)(F)F)nc2)C[C@@H]1C` [Example 53, (S)-1-(2-methyl-4-(3-((6-(trifluoromethyl)pyridin-3-yl)amino)pyrazin-2-yl)piperazin-1-yl)prop-2-en-1-one], the midpoint of inhibition with NCI-H226 cells, the IC50, lay at 0.076 µM. The same compound showed a pIC50 in experiment [1] of 8.44.

`C=C(C(=O)N1CCC(c2nccnc2Oc2ccc(C(F)(F)F)nc2)CC1)C(F)(F)F` [Example 81, 2-(trifluoromethyl)-1-(4-(3-((6-(trifluoromethyl)pyridin-3-yl)oxy)pyrazin-2-yl)piperidin-1-yl)prop-2-en-1-one] yielded an IC50 with NCI-H226 cells of 2.97 µM. The same compound gave a pIC50 in experiment [1] of 8.02.

In turn, `C=C(F)C(=O)N1CCC(c2cccnc2Oc2cnc(C(F)(F)F)nc2)CC1` [Example 160, 2-fluoro-1-(4-(2-((2-(trifluoromethyl)pyrimidin-5-yl)oxy)pyridin-3-yl)piperidin-1-yl)prop-2-en-1-one] had an IC50 with NCI-H226 cells of 2.94 µM. In experiment [1], this compound gave a pIC50 of 5.78.

With `C=CC(=O)N1CCN(c2nccnc2Nc2ccc(C(F)(F)F)cc2)CC1CC(N)=O` (stereo not drawn) [Example 20, 2-(1-acryloyl-4-(3-((4-(trifluoromethyl)phenyl)amino)pyrazin-2-yl)piperazin-2-yl)acetamide], half-maximal inhibition with NCI-H226 cells (IC50) required 2.73 µM. This compound also gave a pIC50 in experiment [1] of less than 4.70.

The compound `C=CC(=O)N1CCC(n2nc(C(=O)c3ccc(C(F)(F)F)cc3)cc2C)CC1` [Example 165, 1-(4-(5-methyl-3-(4-(trifluoromethyl)benzoyl)-1H-pyrazol-1-yl)piperidin-1-yl)prop-2-en-1-one] registered an IC50 with NCI-H226 cells of 5 µM. This compound gave a pIC50 in experiment [1] of 7.70.

Consider `C=CC(=O)N1CCN(c2nccnc2C(=O)c2ccc(C(F)(F)F)cc2)CC1` [Example 95, 1-(4-(3-(4-(trifluoromethyl)benzoyl)pyrazin-2-yl)piperazin-1-yl)prop-2-en-1-one], for which, in the experiment on NCI-H226 cells, the IC50 was found to be 0.012 µM. Further, the pIC50 in experiment [1] was 8.89.

Regarding `C=C(F)C(=O)N1CCN(c2nccnc2Nc2cnc(C(F)(F)F)c(F)c2)CC1` [Example 51, 2-fluoro-1-(4-(3-((5-fluoro-6-(trifluoromethyl)pyridin-3-yl)amino)pyrazin-2-yl)piperazin-1-yl)prop-2-en-1-one], the IC50 in the experiment with NCI-H226 cells was 0.331 µM. The same compound gave a pIC50 in experiment [1] of 8.17.

Values taken from patent publication US20250206722A1, “SMALL MOLECULE INHIBITORS OF TEA DOMAIN FAMILY MEMBERS” (The Scripps Research Institute, priority 2022, published 2025).
